# Patent publication US20240197756A1, “METHODS OF TREATMENT WITH NEUROACTIVE STEROIDS” (priority 2021, published 2024)
# “Also recorded” adds a separate entry of the source. Read-outs that look alike come from different tables or passages of the source.
# Key:
# [1] = Safety and tolerability in MDD patients (Part A); format: in vivo, human; conditions: 80 mg once daily for 14 days in MDD patients
# Experimental: In Part A, participants were administered daily doses of Compound 1 (45 mg Cohort and 80 mg Cohort) at 4 p.m. on Day 1 and qHS on all other study days for 7 days inpatient followed by 7 days outpatient (with subsequent Cohorts receiving up to 120 mg qHS). Participants checked into the clinic on Day 1. During this period the following assessments were performed: adverse event assessments, vital signs, physical examinations, blood and urine samples for safety assessments, ECGs, C-SSRS assessments, blood samples for PK, and efficacy assessments (HAM-D, MADRS, HAM-A, CGI [CGI-S and CGI-I], PSQI, and SDQ). Baseline assessments occurred on Day 1 prior to administration of study drug. On Day 8, prior to discharge, participants were supplied with sufficient Compound 1 to complete 7 days of dosing.
# [2] = Example 3 Part A: oral suspension administered at 4 p.m. vs 8 p.m., plasma pharmacokinetics; format: in vivo, human; conditions: for AUCinf / Cmax / AUC(0-inf) / Tmax / half-life: human, in vivo; for AUCinf / Cmax / AUC(0-inf) / Tmax: po; for AUC(0-inf): AUCinf
# Experimental: Patients with severe major depressive disorder (MDD) aged 18 to 65 years were treated with an oral suspension or tablet of Compound 1 to study the effect of food and time of administration on the pharmacokinetics, as well as the safety and tolerability of these formulations.
# Part A is an open-label, non-randomized, fixed-sequence crossover design to evaluate Compound 1 at 2 different administration times (4 p.m., approximately 4 hours after lunch and 2 hours prior to dinner, and at 8 p.m., approximately 4 hours after dinner). 16 participants were administered an oral suspension of Compound 1.
# Preliminary pharmacokinetics data from Part A, where 45 mg and 60 mg of oral suspension were administered (Cohort 1), and Part C, where 40 mg (2×20 mg), 60 mg (3×20 mg) and 80 mg (4×20 mg) of the tablet formulation were administered, have been analyzed and are summarized below.
# [3] = tested on: harmaline-induced tremor; experiment: rHIT model, coadministration of Compound 1 and Compound 2; format: in vivo, rat
# Experimental: Rat Harmaline Induced Tremor (rHIT): The rHIT model was used to assess the impact of the combination of Compound 1 and Compound 2 on reducing the symptoms of tremor. Male SD rats (SLAC, Shanghai, China) weighing about 250 g at the time of testing were housed in a 12:12 light-dark cycle room throughout the study, with the lights on from 5 a.m. to 5 p.m, and fed ad libitum. […]
# The rHIT methods described in Example 5 were used. […] After the 20-minute baseline recording, rats were dosed with harmaline and the post-harmaline effect was measured for 20 minutes. […]
# [4] = tested on: extrasynaptic form of GABAA receptors; experiment: PAM selectivity for extrasynaptic vs synaptic GABAA receptors
# [5] = tested on: GABAA receptors; experiment: Pre-clinical qEEG beta power and animal models of anxiety and depression; format: in vivo; conditions: pre-clinical studies
# [6] = oral suspension 45 mg and 60 mg
smiles,measurement,setting,value
"COC[C@@]1(O)CC[C@@]2(C)[C@@H](CC[C@@H]3[C@@H]2CC[C@]2(C)[C@@H](C(=O)Cn4ccnc4)CC[C@@H]32)C1 [Compound 1, 3α-Hydroxy-3β-methoxymethyl-21-(1′-imidazolyl)-5α-pregnan-20-one]",tolerability,[1],well tolerated with no change in Adverse Event profile; also recorded: well-tolerated
same,AUCinf,[2]; 45 mg,1880 ng·h/mL
same,Cmax,[2]; 45 mg,157 ng/mL
same,AUC(0-inf),[2]; 45 mg,1800 ng·h/mL
same,Cmax,"[2]; 45 mg, Cmax",207 ng/mL
same,Tmax,[2]; 45 mg,1.5 h
same,AUCinf,[2]; 60 mg,2930 ng·h/mL
same,Cmax,[2]; 60 mg,249 ng/mL
same,AUC(0-inf),[2]; 60 mg,2800 ng·h/mL
same,Cmax,"[2]; 60 mg, Cmax",282 ng/mL
same,Tmax,[2]; 60 mg,1.5 h
same,half-life,"[2]; oral suspension 45 mg and 60 mg, 4 p.m. and 8 p.m., range, read-out: Mean t1/2",11.1 to 12.6 h
same,half-life,"[2]; oral suspension 60 mg 4 PM (4 h after lunch, 2 h before dinner), N = 15, Mean, read-out: t1/2 (converted)",12 h
same,t1/2,"[2]; oral suspension 45 mg 4 PM (4 h after lunch, 2 h before dinner), N = 16, Mean",12.6 h
same,t1/2,"[2]; oral suspension 45 mg 8 PM (4 h after dinner), N = 15, Mean",11.3 h
same,Cmax at 8 p.m. as compared to 4 p.m.,[2]; [6],reduced
same,tmax at 8 p.m. as compared to 4 p.m.,[2]; [6],delayed
same,AUCinf between the 2 administration times,"[2]; oral suspension 45 mg and 60 mg, 4 p.m. vs 8 p.m.",comparable
same,t1/2,"[2]; oral suspension 60 mg 8 PM (4 h after dinner), N = 15, Mean",11.1 h
same,first post-dose timepoint with appearance of concentrations,[2]; suspension at 4 p.m. or 8 p.m.,0.25 h
same,last evaluated timepoint at which concentrations remained detectable,[2]; suspension at 4 p.m. or 8 p.m.,72 h
same,mean concentrations following administration at 4 p.m. as compared to 8 p.m.,"[2]; within the first 2 to 3 hours, 45 mg and 60 mg",higher
same,effect of Compound 1 on the efficacy of Compound 2 in treating tremor,[3]; Compound 1 3 mg/kg p.o.,does not inhibit
same,effect of the addition of Compound 1 on the tremor-reducing effects of Compound 2,[3]; Compound 1 3 mg/kg p.o. (FIG. 11),did not appear to enhance
same,selectivity as PAM of the extrasynaptic form of GABAA receptors compared to the synaptic form,[4],approximately 10 fold
same,increase in beta power associated with robust activity in animal models of anxiety and depression,[5],1.6 fold
